Source: US20070190651A1, “Myogenic Development and Protection of Stem Cells Against Inflammation and Apoptosis By Statins and Isoprenoid Pathway Inhibitors” (Board of Regents of the University of Texas System, priority 2006, published 2007)
“Also recorded” adds a separate entry of the source.

Key:
[1] = system: murine embryonic stem cells; assay type: cell-based
Experimental: At day 12, the number of contracting EB outgrowths (Panel A) and extension of beating area (Panel B) were detrmined by morphometry. The results were plotted as percentages of the total EBs counted in each well and shown as the mean ±SD for each of the 3 separate experiments. *, P<0.05 vs untreated control; #, P<0.05 vs simvastatin-treated control.
The murine ESC (mESC) line CCE was obtained from American Type Culture Collection (ATCC, Rockville, Md.). Murine ESCs were cultured without feeder cells in Dulbecco's modified Eagle's medium supplemented with 10% ESC-qualified Fetal Bovine Serum (FBS) (Stem Cell Technologies, Vancouver, Va.), pyruvate (Stem Cell Technologies, stock solution diluted 1:100), 2 mM L-glutamine, nonessential amino acids (Stem Cell Technologies, stock solution diluted 1:100), 100 IU/mL penicillin, 0.1 mg/mL streptomycin, and leukemia inhibitory factor (LIF) (Stem Cell Technologies). To induce differentiation, EBs were formed from undifferentiated mESCs in hanging drops of 400 cells in 20 μL of medium without LIF. After 5 days in suspension, EBs were plated on gelatin-coated dishes and cultured in cardiomyocyte-differentiation medium (Iscove's modified Eagle's medium, supplemented with 15% FBS, 2 mM L-glutamine, 5×10^−5 M β-mercaptoethanol, nonessential aminoacids, 100 IU/mL penicillin, 0.1 mg/mL streptomycin).
Statin Treatment. […] The inhibition of endogenous cholesterol synthesis was the mechanism used for analyzing the effect of endogenous cholesterol depletion on EB differentiation. By days 8 through 12 after plating, spontaneously contracting cell clusters could be observed within the EB outgrowths. Culture media from both simvastatin-treated and untreated cells were changed each day after day 3.
Spontaneous cardiac differentiation of mouse embryonic stem cells (mESCs) was assessed in vitro as the presence of rhythmically beating […] (EB) outgrowth. […] Thereafter, EB outgrowths were counted periodically under the inverted microscope equipped with a digital video camera, to determine whether or not they contained beating foci at different time points (days 3, 5, 7, 10, 12, and 14). At approximately day 7, contracting areas began to appear. […] Concomitant with the increased number of beating EBs, the size of the beating area for simvastatin-treated EBs increased 2-fold (evaluated at day 12) compared to that of untreated control EBs, a significant augmentation (p<0.05) (FIG. 22B).

NF-κB p65/RelA = assay: Immunoblotting for p65/RelA subunit of NF-κB, total cellular or nuclear proteins of H9c2 cells; assay type: cell-based, rat; details: simvastatin + IL-1α + L-mevalonate
iNOS [2] = assay: Nitrite production (Griess reaction) in H9c2 cardiac myoblasts; assay type: cell-based, rat; details: added to simvastatin + IL-1α 20 ng/mL
Experimental: Cell cultures. H9c2 cells purchased from American Type Culture Collection (ATCC, Rockville, Md.) are spontaneously immortalized ventricular myoblasts from the rat embryo, with preservation of several electrical and biochemical characteristics found in adult cardiomyocytes. […] After certain time intervals, 100 μL/well culture media were collected for determination of nitrite production. Assay for NO Production. The activity of iNOS was determined in the culture medium by assaying nitrites, taken as an index of NO production, using the Griess reagent (1% sulphanilic acid and 0.1% N-[1-naphtyl] ethylenediamine-HCl in 5% phosphoric acid) as reported previously (4,18,19). Equal volumes of medium and Griess reagent were mixed, and the purple products quantified spectrophotometrically at 550 nm. Nitrite concentrations were determined from a linear standard curve constructed with known concentrations of sodium nitrite (0 to 40 μmol/L nitrite). Nitrite Assays. Nitrite, a stable end-product of nitric oxide, was measured by using Griess reagent (1% sulphanilic acid and 0.1% N-[1-naphtyl] ethylenediamine-HCl in 5% phosphoric acid). Equal volumes of medium and Griess reagent were mixed, and the resulting purple product quantified by spectrophotometric assay at 550 nm. Nitrite concentrations were calculated from a linear standard curve constructed with known concentrations of sodium nitrite (0-14 μmol/L nitrite) (19).

H9c2 embryonic myoblasts [3] = assay: Apoptosis assay (acridine orange and ethidium bromide) in H9c2 embryonic myoblasts; assay type: cell-based, rat; details: mevalonate 10^−4 mol/l with IL-1 + simvastatin
Experimental: The cells were exposed with IL-1αSimvastatin for 24 hours and then stained with two fluorochromes: acridine orange and ethidium bromide. Living (green fluorescence) and apoptotic (red fluorescence) cells were identified and counted with an Olympus fluorescence microscope connected to a computer imaging station.
(§1) The rat embryonic myogenic cell line H9c2 was commercially obtained from ATCC and maintained in Dulbecco's modified Eagle's medium (GIBCO) supplemented with 10% FBS at 37° C. in 95% air and 5% CO2.
Assays for Apoptosis. Analysis of apoptotic cells was performed by fluorescent microscopy with fluorochromes acridine orange and ethidium bromide (Sigma), as described previously (19). Apoptotic cells were discernible by their condensed, fragmented nuclei stained with both fluorochromes and were counted under a fluorescence microscope (Olympus, Center Valley, Pa.) connected to a computer imaging analysis station.

H9c2 embryonic myoblasts [4] = assay: Immunoblotting for Bad, Bcl-xL and PCNA in H9c2 embryonic myoblasts with IL-1; assay type: cell-based, rat; details: L-mevalonate added to simvastatin + IL-1
Experimental: Quantitation of protein bands was achieved by densitometry (Panels D, E and F, bottom). β-Tubulin staining of stripped blots was used as a control. […] PCNA, proliferating cell nuclear antigen; IL-1, interleukin-1-α; iNOS, inducible nitric oxide synthase; MnSOD, manganese superoxide dismutase.
as §1
Immunoblotting. Total proteins were isolated from rat cardiac myoblasts (H9c2 cells) or embryonic stem cells in an ice-cold lysis buffer containing 10 mmol/L Tris (tris(hydroxymethyl)aminomethane) (pH 7.4), 1% sodium dodecyl sulfate (SDS) and 1× protease inhibitor (1 mmol/L sodium orthovanadate). Proteins (15 μg/lane) were separated under the reducing conditions (125 mM Tris pH 6.8, 4% SDS, 10% glycerol, 0.006% bromophenol blue, 2% β-mercaptoethanol) by electrophoresis onto 5-10% SDS-polyacrylamide gel and electro-blotted to nitrocellulose membranes (Osmonics, Westborough, Mass.). The membranes were reversibly stained with Ponceau red (Sigma) to verify equal protein loading and/or transfer. […] Intensity of each immunoreactive protein band was quantified by densitometric analysis. […]

iNOS [5] = assay: Immunoblotting for iNOS protein in cytokine-stimulated H9c2 cardiac myoblasts; assay type: cell-based, rat; details: H9c2
Experimental: Cell cultures. H9c2 cells purchased from American Type Culture Collection (ATCC, Rockville, Md.) are spontaneously immortalized ventricular myoblasts from the rat embryo, with preservation of several electrical and biochemical characteristics found in adult cardiomyocytes. They were cultured in DMEM medium (ATCC) supplemented with 10% heat-inactivated fetal bovine serum (FBS) in 95% air and 5% CO2 at 37° C. […] After certain time intervals, 100 μL/well culture media were collected for determination of nitrite production.
Immunoblotting. Total proteins were isolated from rat cardiac myoblasts (H9c2 cells) or embryonic stem cells in an ice-cold lysis buffer containing 10 mmol/L Tris (tris(hydroxymethyl)aminomethane) (pH 7.4), 1% sodium dodecyl sulfate (SDS) and 1× protease inhibitor (1 mmol/L sodium orthovanadate). Proteins (15 μg/lane) were separated under the reducing conditions (125 mM Tris pH 6.8, 4% SDS, 10% glycerol, 0.006% bromophenol blue, 2% β-mercaptoethanol) by electrophoresis onto 5-10% SDS-polyacrylamide gel and electro-blotted to nitrocellulose membranes (Osmonics, Westborough, Mass.). The membranes were reversibly stained with Ponceau red (Sigma) to verify equal protein loading and/or transfer. After blocking in Tris-buffered saline (0.2 M Tris and 8% NaCl) containing 5% non-fat powdered milk and 0.1% Tween 20 for 1 hour at room temperature, the membranes were incubated overnight at 4° C. with following primary antibodies to (a) iNOS (Transduction Laboratories, Lexington, Ky.; BD Biosciences); (b) NF-κB p65/rel (Santa Cruz Biotechnologies, Santa Cruz, Calif.); (c) ser^32-phosphorylated inhibitor IκBα (Santa Cruz); (d) Bad (BD Biosciences, San Jose, Calif.); (e) Bcl-xL (BD Biosciences); (f) proliferating cell nuclear antigen (PCNA; BC Biosciences); (g) ryanodine receptor (Santa Cruze Biotechnology, Inc., Santa Cruz, Calif.); (h) α-sarcomeric actinin (Sigma); (i) myocardin A (developed by immunizing rabbits with a synthetic myocardin A peptide); (j) Tie-2 (Santa Cruz); (k) manganese superoxide dismutase (Santa Cruz); and (1) β-tubulin (Sigma). The blots were incubated with horseradish peroxidase-coupled secondary antibodies, washed and developed by using a SuperSignal West Pico Chemiluminescent Substrate Kit (Pierce, Rockford, Ill.). Intensity of each immunoreactive protein band was quantified by densitometric analysis. Cytokine-stimulated RAW 264.7 cells (Transduction Laboratories, Lexington, Ky.) were used as positive controls.

NF-κB = details: cited from earlier work
[6] = injected subcutaneously over the calvaria of mice; cited from earlier work
iNOS [7] = details: lovastatin pretreatment; cited from earlier work
[8] = orally administered to rats; cited from earlier work
Rho kinase = details: cited from earlier work
iNOS [9] = details: cited from earlier work

For CC(O)(CCO)CC(=O)O [L-mevalonate], the “cytotoxicity in EBs” value [1] was “without any cytotoxicity”, the “contracting EBs in the absence of simvastatin” value ([1]; L-mevalonate alone) was “no or little effect on contracting EBs” and the “nuclear p65/rel protein levels in statin-treated, cytokine-stimulated cells” value (NF-κB p65/RelA) was “could elevate the nuclear p65/rel protein levels”. For the same molecule, the “effect on nitrite production in cells treated with simvastatin plus IL-1α” value (iNOS [2]) was “significantly increased the nitrite concentrations”, the “effect on the simvastatin cytoprotective effect” value (H9c2 embryonic myoblasts [3]) was “diminished” and the “effect on the simvastatin effect on Bcl-xL” value (H9c2 embryonic myoblasts [4]) was “reversed the statin effect”. The “effect on simvastatin inhibition of cytokine-induced iNOS protein expression” value (iNOS [5]; added to simvastatin + IL-1α or TNF-α) was “reversibly blocked; also recorded: blocks the simvastatin inhibitory effect; also recorded: diminished the inhibitory effect of simvastatin” and the “cytokine-induced iNOS protein expression in the absence of simvastatin” value (iNOS [5]; cytokine-stimulated, no simvastatin) was “no or little effect on cytokine-induced iNOS expression”.

In the case of CC[C@H](C)C(=O)O[C@H]1CCC=C2C=C[C@H](C)[C@H](CC[C@@H]3C[C@@H](O)CC(=O)O3)[C@H]21 [mevastatin], the “NF-κB activity and NF-κB-dependent VCAM and E-selectin expression” value (NF-κB) is given as “inactivate NF-κB and reduce NF-κB-dependent expression of the endothelial adhesion proteins”.

For CC[C@H](C)C(=O)O[C@H]1C[C@@H](C)C=C2C=C[C@H](C)[C@H](CC[C@@H]3C[C@@H](O)CC(=O)O3)[C@H]21 [lovastatin], the bone formation [6] is listed as “increase bone formation”, the “IL-1beta induction of iNOS” value (iNOS [7]) is listed as “superinduction of iNOS” and the cancellous bone volume [8] is listed as “increased cancellous bone volume”. For the same molecule, the Rho kinase activity (Rho kinase) was “inhibit the Rho kinase activity”, the “iNOS and cytokine expression” value (iNOS [9]; rat macrophages, astrocytes, and microglia) was “inhibits iNOS and cytokine expression” and the “LPS-induced iNOS expression” value (iNOS [9]; rat primary astrocytes) was “blocks LPS-induced iNOS expression”.
